Data: US20070066594A1, “Crystalline forms fenoldopam mesylate” (priority 2005, published 2007)

Key:
Format in all cases: physicochemical
[1] = Stability under humid conditions: crystalline form by XRD after exposure to relative humidity
Experimental: (§1) X-Ray powder diffraction data were obtained by using methods known in the art with a SCINTAG powder X-Ray diffractometer model X'TRA equipped with a solid-state detector. The X-Ray radiation was copper radiation, having a wavelength of 1.5418 Å. A round aluminum sample holder with zero background was used for the measurements. All peak positions are within ±0.2° 2θ.
(§2) TGA analysis determined that this form has a water content of 7.8 percent by weight water.
Fenoldopam mesylate Type I was stored at 100 percent relative humidity for 8 days at room temperature. […]

[2] = Hygroscopicity: water content by TGA after exposure to relative humidity; conditions: for Water content (by TGA): Table 4
Experimental: The TGA analysis was performed with a Mettler M3 thermogravimeter with samples of about 8 mg and a scan rate of 10° C./min from 25° C. to 200° C., subtracting a blank from the sample. The TGA oven was constantly purged with nitrogen gas at a flow rate of 40 ml/min, and standard 150 μl alumina crucibles covered by lids with 1 hole were used.
as §2
Fenoldopam Type VI was produced when a mixture of about 50 mg of fenoldopam mesylate Type I, produced in Examples 2 and 4, was exposed to 0 percent relative humidity at room temperature for 8 days.

[3] = Stability on drying/heating at 80° under vacuum, crystalline form by XRD; conditions: dried 16 hours at 80° under vacuum; methanesulfonate
Experimental: as §1
An 81.5 gram sample of the product produce in Example 17 was dried for 16 hours at 80° under vacuum, providing a yield of 81.2 grams, having a water content of 0.05 percent by weight, and an isopropanol content of 1620 ppm. An XRD analysis confirmed the product sample was fenoldopam mesylate Type II.
A 4.08 gram sample of the product of Example 22 was dried at 80° C. under vacuum for 16 hours, providing a yield of 3.95 grams, having a water content of 0.02 percent by weight and a methanol content of 766 ppm. An XRD analysis confirmed the product sample was fenoldopam mesylate Type III.

[4] = 100 percent relative humidity, more than about 7 days, room temperature

Structure (SMILES): CS(=O)(=O)O.Oc1ccc(C2CNCCc3c2cc(O)c(O)c3Cl)cc1 (centres unmarked) [Type I, 6-chloro-2,3,4,5-tetrahydro-1-(4-hydroxyphenyl)-[1H]-3-benzazepine-7,8-diol methanesulfonate]
- Time the crystalline form is stable (remains as the Type I dihydrate) on exposure to relative humidity ([1]; 0 to 100% relative humidity): more than 5 days
- Crystalline form (by XRD) ([1]; 20 % RH, 8 days, room temperature): Type I
- Crystalline form (by XRD) ([1]; 40 % RH, 8 days, room temperature): Type I
- Crystalline form (by XRD) ([1]; 60 % RH, 8 days, room temperature): Type I
- Crystalline form (by XRD) ([1]; 80 % RH, 8 days, room temperature): Type I
- Crystalline form (by XRD) ([1]; 100 % RH, 8 days, room temperature, methanesulfonate): remains fenoldopam mesylate Type I
- Crystalline form (by XRD) ([1]; Table 4, 0 % RH, 8 days, room temperature): Type VI
- Crystalline form (by XRD) ([1]; Table 4, 20 % RH, 8 days): Type I
- Crystalline form (by XRD) ([1]; Table 4, 40 % RH, 8 days): Type I
- Crystalline form (by XRD) ([1]; Table 4, 60 % RH, 8 days): Type I
- Crystalline form (by XRD) ([1]; Table 4, 80 % RH, 8 days): Type I
- Crystalline form (by XRD) ([1]; Table 4, initial): Type I
- Crystalline form (by XRD) ([1]; initial sample): Type I
- Water content (by TGA) ([2]; 0 % RH, 8 days, room temperature): 0.9
- Water content (by TGA) ([2]; 20 % RH, 8 days): 7.9
- Water content (by TGA) ([2]; 40 % RH, 8 days): 8.0
- Water content (by TGA) ([2]; 60 % RH, 8 days): 7.9
- Water content (by TGA) ([2]; 80 % RH, 8 days): 8.0
- Water content (by TGA) ([2]; initial): 8.0

Structure (SMILES): CS(=O)(=O)O.Oc1ccc(C2CNCCc3c2cc(O)c(O)c3Cl)cc1 (centres unmarked) [Type II, 6-chloro-2,3,4,5-tetrahydro-1-(4-hydroxyphenyl)-[1H]-3-benzazepine-7,8-diol methanesulfonate, reference compound]
- Crystalline form (by XRD) after drying [3]: Type II

Structure (SMILES): CS(=O)(=O)O.Oc1ccc(C2CNCCc3c2cc(O)c(O)c3Cl)cc1 (centres unmarked) [Type III, 6-chloro-2,3,4,5-tetrahydro-1-(4-hydroxyphenyl)-[1H]-3-benzazepine-7,8-diol methanesulfonate]
- Crystalline form (by XRD) ([1]; Table 3, 80 % RH, 8 days): Type III
- Crystalline form (by XRD) ([1]; Table 3, 100 % RH, 8 days): Type III
- Crystalline form (by XRD) ([1]; Table 3, initial sample): Type III
- Crystalline form (by XRD) after drying [3]: Type III

Structure (SMILES): CS(=O)(=O)O.Oc1ccc(C2CNCCc3c2cc(O)c(O)c3Cl)cc1 (centres unmarked) [Type V, 6-chloro-2,3,4,5-tetrahydro-1-(4-hydroxyphenyl)-[1H]-3-benzazepine-7,8-diol methanesulfonate]
- Crystalline form after humidity exposure (by PXRD) [1, 4]: transforms this form to Type I
- Water content (by TGA) after humidity exposure [2, 4]: 7.8 percent by weight
